Where “and” joins values, the source holds several entries; their conditions need not be identical. Identical values can stand only once.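 Five compound concentrations were applied to cells in 96-well plates for 48 hours; endpoints were derived by simple linear interpolation of the resulting dose-response curve. GI50 is the concentration that inhibits growth by half. At the TGI there is no net growth.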

The record followed here is PubChem BioAssay (NCI).

Some test systems named below: SK-OV-3 ovarian; HL-60(TB) leukemia; PC-3 prostate; HCT-116 colon; SF-268 CNS; SK-MEL-5 melanoma; UO-31 renal; SF-295 CNS; NCI/ADR-RES ovarian; SK-MEL-2 melanoma.
Common to all, as to experiment: NCI tumour cell line growth inhibition, 48 h

Regarding `CCCCCCCCC/C(=N\NC(=O)c1ccncc1)c1ccc(O)c(O)c1O`, the GI50 in the experiment on SK-OV-3 ovarian was 0.246 µM; with HL-60(TB) leukemia it was 0.288 µM; with PC-3 prostate it was 1.6 µM; in the experiment on HCT-116 colon, 0.121 µM; with SF-268 CNS it was 0.142 µM; in the experiment on SK-MEL-5 melanoma it was 0.139 µM. Besides, the GI50 in the experiment with UO-31 renal is 0.0745 µM; in the experiment with SF-295 CNS it was 0.307 µM; with NCI/ADR-RES ovarian it was 0.093 µM; in the experiment on SK-MEL-2 melanoma it was 0.521 µM. In addition, the TGI in the experiment on SK-OV-3 ovarian was > 100 µM; with HL-60(TB) leukemia, 0.955 µM; in the experiment with PC-3 prostate, > 100 µM; with HCT-116 colon it was 12.8 µM; in the experiment on SF-268 CNS, > 23.4 µM; in the experiment with SK-MEL-5 melanoma it was 0.494 µM. The TGI was > 29.3 µM in the experiment on UO-31 renal, > 100 µM in the experiment on SF-295 CNS, 11.4 µM in the experiment with NCI/ADR-RES ovarian and > 100 µM in the experiment with SK-MEL-2 melanoma.

For the compound `Cc1cc(Nc2ncc3c(n2)N(C)C(=O)N(c2cc(NC(=O)c4cccc(C(F)(F)F)c4)ccc2C)C3)n(C)n1`, the GI50 in the experiment on SK-OV-3 ovarian was 0.022 µM; in the experiment on HL-60(TB) leukemia it was 0.0365 µM; in the experiment on PC-3 prostate, 0.105 µM; in the experiment on HCT-116 colon, 0.0333 µM; in the experiment on SF-268 CNS, 0.0291 µM; in the experiment with SK-MEL-5 melanoma, 0.283 µM. The GI50 is 0.0583 µM in the experiment on UO-31 renal, 0.364 µM in the experiment on SF-295 CNS, 0.97 µM in the experiment with NCI/ADR-RES ovarian and 0.0245 µM in the experiment with SK-MEL-2 melanoma. Further, the TGI in the experiment on SK-OV-3 ovarian was 0.0701 µM; in the experiment on PC-3 prostate, > 31.6 µM; in the experiment with HCT-116 colon, 27.1 µM; with SF-268 CNS it was > 100 µM; in the experiment with SK-MEL-5 melanoma, 7.87 µM; in the experiment on UO-31 renal, 0.322 µM. The TGI was > 100 µM in the experiment with SF-295 CNS, > 31.6 µM in the experiment with NCI/ADR-RES ovarian and 0.0764 µM with SK-MEL-2 melanoma.

`COc1ccc2cc(C(=O)/C=C/c3ccc(N(C)C)cc3)ccc2c1`: the GI50 in the experiment with SK-OV-3 ovarian is > 100 µM; in the experiment on HL-60(TB) leukemia, > 100 µM; with PC-3 prostate it was > 100 µM; with HCT-116 colon, > 100 µM; in the experiment with SF-268 CNS, 42.6 µM; in the experiment with SK-MEL-5 melanoma, 36.9 µM. For the same compound, the GI50 in the experiment on UO-31 renal is > 100 µM; in the experiment with SF-295 CNS, > 100 µM; in the experiment on NCI/ADR-RES ovarian, 49.8 µM; in the experiment on SK-MEL-2 melanoma it was 61.6 µM. The TGI is > 100 µM in the experiment with SK-OV-3 ovarian; > 100 µM in the experiment with HL-60(TB) leukemia; > 100 µM in the experiment on PC-3 prostate; > 100 µM with HCT-116 colon; > 100 µM with SF-268 CNS; 72.8 µM in the experiment with SK-MEL-5 melanoma. Also, the TGI with UO-31 renal, in the experiment with SF-295 CNS, in the experiment on NCI/ADR-RES ovarian and with SK-MEL-2 melanoma was > 100 µM in each case.

Take `COC(=O)C1=COC(C)C2CN3CCc4c([nH]c5cc(OC)c(OC)cc45)C3CC12` (stereo unspecified): the TGI in the experiment on SK-OV-3 ovarian is > 100 µM; in the experiment on HL-60(TB) leukemia it was 66.6 µM and 65.9 µM; in the experiment with PC-3 prostate, > 100 µM; with HCT-116 colon it was > 100 µM; in the experiment on SF-268 CNS it was > 100 µM; with SK-MEL-5 melanoma, > 100 µM. Further, the TGI in the experiment on UO-31 renal, in the experiment on SF-295 CNS, in the experiment with NCI/ADR-RES ovarian and with SK-MEL-2 melanoma was > 100 µM in each case. In addition, the GI50 in the experiment on HCT-116 colon was > 100 µM and 43.6 µM; with NCI/ADR-RES ovarian, 15.1 µM and 64.2 µM.

`O=[N+]([O-])c1ccc(C2CC(c3ccccc3)=Nc3ccccc3S2)cc1` (stereo unspecified): the GI50 was > 100 µM in the experiment on SK-OV-3 ovarian; > 100 µM in the experiment on HL-60(TB) leukemia; 8.2 µM in the experiment with PC-3 prostate; 1.98 µM in the experiment with HCT-116 colon; > 100 µM in the experiment on SF-268 CNS; > 100 µM in the experiment with SK-MEL-5 melanoma. Also, the GI50 is 3.8 µM in the experiment on UO-31 renal, > 100 µM with SF-295 CNS, > 100 µM with NCI/ADR-RES ovarian and > 100 µM in the experiment on SK-MEL-2 melanoma. Further, the TGI in the experiment with SK-OV-3 ovarian was > 100 µM; in the experiment with HL-60(TB) leukemia, > 100 µM; with PC-3 prostate it was > 100 µM; in the experiment on HCT-116 colon, 4.11 µM; in the experiment with SF-268 CNS, > 100 µM; in the experiment on SK-MEL-5 melanoma, > 100 µM. The TGI in the experiment with UO-31 renal, in the experiment with SF-295 CNS, in the experiment on NCI/ADR-RES ovarian and with SK-MEL-2 melanoma was > 100 µM in each case.

Consider `Cc1ccc(-c2cc3c4c(nc5ccccc53)C(=O)c3cccnc3-c4n2)cc1`, for which the GI50 is 34.7 µM with SK-OV-3 ovarian; 1.35 µM with HL-60(TB) leukemia; 17.3 µM in the experiment on PC-3 prostate; 7.65 µM in the experiment on HCT-116 colon; 17 µM in the experiment with SF-268 CNS; 1.67 µM in the experiment on SK-MEL-5 melanoma. For the same compound, the GI50 was 17.1 µM in the experiment with UO-31 renal, 12.4 µM in the experiment on SF-295 CNS, 14.3 µM in the experiment with NCI/ADR-RES ovarian and 15 µM in the experiment on SK-MEL-2 melanoma. The TGI in the experiment with SK-OV-3 ovarian was > 94.4 µM; with HL-60(TB) leukemia, > 100 µM; in the experiment on PC-3 prostate, > 83.8 µM; in the experiment with HCT-116 colon, 22.8 µM; with SF-268 CNS it was 61.1 µM; with SK-MEL-5 melanoma it was 3.89 µM. Besides, the TGI in the experiment with UO-31 renal is > 82.6 µM; in the experiment on SF-295 CNS, 25.7 µM; with NCI/ADR-RES ovarian, 49.7 µM; in the experiment on SK-MEL-2 melanoma, 38 µM.
